In one assay the target is T1, p60^c-src (Homo sapiens, UniProt P12931).
T1 construct: purchased Upstate Biotechnologies
The assay is described as follows: Src kinase assay (ELISA format). Format: biochemical. On the procedure:
Inhibitors of p60^c-src (partially purified preparation purchased from Upstate Biotechnologies) tyrosine kinase activity are analyzed in an ELISA format. The Boehringer Mannheim Tyrosine Kinase Assay Kit (Catalog number 1-534505) with a cdc2 substrate peptide containing Tyr15 is used for the assay. HRP-conjugated anti-phosphotyrosine is used to detect phosphorylated peptide via a color reaction. Conditions recommended by the manufacturer are employed.
Reaction conditions: Five microliter aliquots of each compound prepared fresh at the time of the assay are added as a solution in 10mM HEPES pH 7.5, 10% DMSO to the reaction well. Thirty-five microliters of reaction mix containing Src, buffer and peptide/bovine serum albumin mix are added to the compound wells and incubated at 30°C for 10 minutes (reaction buffer: 50mM TrisHCl pH 7.5, 10mM MgCl2, 0.1mM EGTA, 0.5mM Na3VO4). The reaction is started by addition of 10 microliters of ATP, incubated at 30°C for 1 hour, and stopped by addition of 20 microliters of 0.5M EDTA. The reaction mixture with the phosphorylated peptide was then transferred to a streptavidin-coated microtiter plate (provided in the kit) and allowed to bind for 20 minutes. […] Substrate (provided in the kit) was added and absorbance at 405nm was measured.
Activity was determined as % inhibition as calculated by the formula: (1 - Abs/Abs(max)) x 100 = % inhibition. […]

The target of assay [1] is T2, Epidermal Growth Factor Receptor Kinase (EGF-R) (Homo sapiens, UniProt P00533).
T2 construct: containing the EGFR cDNA encoding amino acids 645 - 1186 preceded by Met-Ala-(His)6; Met-Ala-(His)6 (N); made in house; host or cells: Sf9 insect cells (baculovirus vHcEGFR52)
The experiment in a line: Inhibition of Epidermal Growth Factor Receptor Kinase (EGF-R) using recombinant enzyme. It is filed as biochemical. As to conditions: for inhibition at 0.5 µM: 0.5 µM concentration of test compound. On the procedure: Representative test compounds were evaluated for their ability to inhibit the phosphorylation of the tyrosine residue of a peptide substrate catalyzed by the enzyme epidermal growth factor receptor kinase. The peptide substrate (RR-SRC) has the sequence arg-arg-leu-ile-glu-asp-ala-glu-tyr-ala-ala-arg-gly. The enzyme used in this assay is the His-tagged cytoplasmic domain of EGFR. A recombinant baculovirus (vHcEGFR52) was constructed containing the EGFR cDNA encoding amino acids 645 - 1186 preceded by Met-Ala-(His)6. Sf9 cells in 100 mm plates were infected at an moi of 10 pfu/cell and cells were harvested 48 hours post infection. A cytoplasmic extract was prepared using 1% Triton X-100 and applied to Ni-NTA column. After washing the column with 20 mM imidazole, HcEGFR was eluted with 250 mM imidazole (in 50 mM Na2HPO4, pH 8.0, 300 mM NaCl). Fractions collected were dialyzed against 10 mM HEPES, pH 7.0, 50 mM NaCl, 10% glycerol, 1µg/mL antipain and leupeptin and 0.1 mM Pefabloc SC. The protein was frozen in dry ice/methanol and stored -70° C.
Test compounds were made into 10 mg/mL stock solutions in 100% dimethylsulfoxide (DMSO). Prior to experiment, stock solutions were diluted to 500 µM with 100% DMSO and then serially diluted to the desired concentration with HEPES buffer (30 mM HEPES pH 7.4).
For the enzyme reaction, 10 µL of each inhibitor (at various concentrations) were added to each well of a 96-well plate. To this was added 3 µL of enzyme (1:10 dilution in 10mM HEPES, pH 7.4 for final conc. of 1:120). This was allowed to sit for 10 minutes on ice and was followed by the addition of 5 µl peptide (80 uM final conc.), 10µl of 4X Buffer (Table A), 0.25 µL ^33P-ATP and 12 µL H2O. The reaction was allowed to run for 90 minutes at room temperature and was followed by spotting the entire volume on to precut P81 filter papers. The filter discs were washed 2X with 0.5% phosphoric acid and radioactivity was measured using a liquid scintillation counter. Table A
The inhibition data for representative compounds of the invention are shown below in TABLE 1. The IC50 is the concentration of test compound needed to reduce the total amount of phosphorylated substrate by 50%. The % inhibition of the test compound was determined for at least three different concentrations and the IC50 value was evaluated from the dose response curve. […] CPM(control) is in units of counts per minute and was a number expressing the amount of radiolabeled ATP (γ-^33P) incorporated into the RR-SRC peptide substrate by the enzyme after 90 minutes at room temperature in the absence of test compound as measured by liquid scintillation counting. The CPM values were corrected for the background counts produced by ATP in the absence of the enzymatic reaction. Where it was possible to determine an IC50 value, this is reported in TABLE 1 otherwise the % inhibition at 0.5 µM concentration of test compound is shown in TABLE 1.

The subject of a further assay is SW620. The assay is described as follows: Inhibition of cancer cell growth as measured by cell number (Sulforhodamine B). It is filed as cell-based. As to conditions: Homo sapiens, SW-620; 48 hours exposure. How it is done: (§1) Human tumor cell lines were plated in 96-well plates (250 µl/well, 1-6 x 10^4 cells/ml) in RPMI 1640 medium, containing 5% FBS (Fetal Bovine Serum). […] After 48 hours exposure to test compounds, cells were fixed with trichloroacetic acid, and stained with Sulforhodamine B. After washing with trichloroacetic acid, bound dye was solubilized in 10 mM Tris base and optical density was determined using a plate reader. Under conditions of the assay the optical density is proportional to the number of cells in the well. IC50s (concentrations causing 50% inhibition of cell growth) were determined from the growth inhibition plots. The test procedure is described in details by Philip Skehan et. al, J.Natl. Canc. Inst., 82, 1107-1112 (1990). […] Information about some of the cell lines used in these test procedures is available from the American Type Tissue Collection: Cell Lines and Hybridomas, 1994 Reference Guide, 8th Edition. The Her2Neu cell line is a 3T3 line that has been transfected with Her2 receptor kinase.

The subject of another assay is MDA435. Described as above. It is filed as cell-based. As to conditions: Homo sapiens, 48 hours exposure. On the procedure: as §1
In another assay the test system is Her2Neu. The description is as above. It is filed as cell-based. As to conditions: 48 hours exposure; 3T3 line transfected with Her2 receptor kinase. On the procedure:
as §1

Another assay deals with 3T3. The assay is described as above. As to conditions: Mus musculus, NIH3T3; 48 hours exposure. It is filed as cell-based. On the procedure:
as §1

For a further assay, the system named is SKBR3. The assay is described as above. Format: cell-based. As to conditions: Homo sapiens, SK-BR-3; 48 hours exposure. How it is done:
as §1

The subject of another assay is A431. Described as above. As to conditions: Homo sapiens, A-431; 48 hours exposure. Format: cell-based. How it is done:
as §1

In another assay the target is T3, c-Met (Homo sapiens, UniProt P08581).
T3 construct: The cytoplasmic domain of c-Met was generated by reverse transcriptase-polymerase chain reaction; His tag (from pFastBac-HTc vector; purified on Ni-NTA/Talon); made in house; host or cells: Sf9 insect cells (baculovirus)
The assay is described as follows: DELFIA assay for c-Met receptor kinase inhibitors. It is filed as biochemical. On the procedure:
The c-Met kinase assay was performed as a DELFIA (dissociation enchanced lanthanide fluorometric immunoassay), an ELISA-like protocol based upon time-resolved fluorometry as described previously [Braunwalder, A. F., Yarwood, D.R., Sills, M.A., and Lipson, K.E., Anal. Biochem. 238, 159-164 (1996)]. The protocol was adopted for the screening of inhibitors of the kinase activity of recombinant c-Met. [Loganzo, F., and. Hardy, C., American Biotechnology Laboratory 16(13), 26-28 (1998)]. The cytoplasmic domain of c-Met was generated by reverse transcriptase-polymerase chain reaction using RNA isolated from human mammary epithelial cells as template, cloned into the pFastBac-HTc vector (Life Technologies) and protein expressed in Sf9 insect cells by baculovirus infection. Protein was purified by imidazole elution from Ni-NTA resin (Invitrogen, Carlsbad, CA) or Talon resin (Clontech, Palo Alto, CA). Various conditions were evaluated for the kinase screening protocol and screening was accomplished with the following method. Polystyrene Maxisorp plates (Nunc) were pre-coated for 1 hour to overnight at room temperature with 5 µg/ml poly(Glu4-Tyr) diluted in Tris-buffered saline (TBS). Plates were washed 3X with TBS. c-Met protein preparation was diluted 1:80 into 0.1% BSA/ 4 mM HEPES. A master mix was prepared consisting of: 1 volume of diluted c-Met, 1 volume of 5X buffer (20 mM HEPES, pH 7.4; 2 mM MnCl2; 100 µM Na3VO4; 1 mM DTT), 0.9 volume of water. Master mix (29 µl) was added to the wells of peptide-coated microtiter plates. For assays where c-Met autophosphorylation was evaluated, plates were uncoated and c-Met was diluted into 4 mM HEPES at 1:40 without BSA. Compounds (1 µl) at various dilutions (1 mM to 0.1 µM) prepared in DMSO were added and mixed well with an automatic piptettor. After incubation 20 minutes at room temperature, the reaction was initiated with 20 µl of 62.5 µM ATP/ 50 mM MgCl2 (final 25 µM ATP/ 20 mM MgCl2 in assay). Reactions were incubated 45 minutes at room temperature. Plates were then washed 3X with 100 µl each of DELFIA wash buffer (Wallac). Antibody binding was performed by adding 75 µl of Europium-conjugated anti-phosphotyrosine diluted 1:2000 in Assay Buffer (Wallac) for 1 hour at room temperature. Plates were washed 3X with DELFIA wash buffer. Detection was done by addition of 100 µl of Enhancement Solution (Wallac). After 30 minutes, plates were read in a Wallac VICTOR-2 time-resolved fluorometer. Inhibition data was reported as europium counts for compound treated wells normalized to control counts. IC50 values were obtained by using log doses of compound and calculated using Data Analysis Toolbox software, version 1.0.2 (MDL Information Systems, Inc.).

In brackets after ≈: the same amount, converted by molar mass.

T2 sequence (P00533 669-1210): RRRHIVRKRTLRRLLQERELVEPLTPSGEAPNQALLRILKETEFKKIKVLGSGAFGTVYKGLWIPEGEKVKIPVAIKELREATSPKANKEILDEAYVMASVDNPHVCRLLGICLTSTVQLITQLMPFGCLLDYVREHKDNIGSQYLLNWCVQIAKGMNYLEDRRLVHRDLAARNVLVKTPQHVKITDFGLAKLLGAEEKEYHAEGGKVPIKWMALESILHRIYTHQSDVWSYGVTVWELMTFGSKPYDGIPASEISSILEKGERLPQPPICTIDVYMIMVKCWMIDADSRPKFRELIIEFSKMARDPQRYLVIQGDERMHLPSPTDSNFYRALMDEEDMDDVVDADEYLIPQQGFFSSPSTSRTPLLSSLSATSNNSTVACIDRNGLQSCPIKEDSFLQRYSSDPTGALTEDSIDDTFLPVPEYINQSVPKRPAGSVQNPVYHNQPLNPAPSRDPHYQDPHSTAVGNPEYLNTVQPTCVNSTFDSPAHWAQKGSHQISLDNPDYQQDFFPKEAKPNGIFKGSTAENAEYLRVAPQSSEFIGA
T3 sequence (P08581 956-1390 limits assumed): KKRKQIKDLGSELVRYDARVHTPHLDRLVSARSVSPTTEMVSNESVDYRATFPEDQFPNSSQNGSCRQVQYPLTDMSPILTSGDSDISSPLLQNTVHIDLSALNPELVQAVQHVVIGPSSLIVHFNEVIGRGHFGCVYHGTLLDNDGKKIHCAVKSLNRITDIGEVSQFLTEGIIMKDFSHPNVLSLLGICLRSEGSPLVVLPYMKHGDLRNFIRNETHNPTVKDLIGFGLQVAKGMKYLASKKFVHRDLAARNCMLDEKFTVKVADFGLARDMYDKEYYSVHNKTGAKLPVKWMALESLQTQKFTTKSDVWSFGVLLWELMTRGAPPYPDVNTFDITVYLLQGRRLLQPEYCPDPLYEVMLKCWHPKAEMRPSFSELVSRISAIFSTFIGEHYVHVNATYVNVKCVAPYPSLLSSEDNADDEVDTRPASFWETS
T1 sequence (P12931 whole entry): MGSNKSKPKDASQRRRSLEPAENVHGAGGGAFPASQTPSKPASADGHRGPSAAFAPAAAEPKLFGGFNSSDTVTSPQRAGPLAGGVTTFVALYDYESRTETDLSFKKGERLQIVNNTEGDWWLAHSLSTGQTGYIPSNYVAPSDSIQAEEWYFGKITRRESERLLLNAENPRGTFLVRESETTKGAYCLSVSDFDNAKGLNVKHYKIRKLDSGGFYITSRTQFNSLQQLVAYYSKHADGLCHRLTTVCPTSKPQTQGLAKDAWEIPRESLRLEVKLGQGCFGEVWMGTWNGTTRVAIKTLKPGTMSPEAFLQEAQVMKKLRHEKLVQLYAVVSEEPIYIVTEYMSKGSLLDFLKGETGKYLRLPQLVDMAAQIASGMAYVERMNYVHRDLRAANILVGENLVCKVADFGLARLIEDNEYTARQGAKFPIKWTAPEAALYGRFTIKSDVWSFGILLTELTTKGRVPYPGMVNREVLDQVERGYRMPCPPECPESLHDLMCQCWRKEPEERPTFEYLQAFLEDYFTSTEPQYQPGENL

For orientation: IC50 means the concentration needed to halve the response being measured. Turning to `CCN1CCN(CCCCN2CCOc3cc4c(Nc5ccc(Cl)cc5Cl)c(C#N)cnc4cc32)CC1` [Example 24, 9-(2,4-Dichloroanilino)-4-[4-(4-ethyl-1-piperazinyl)butyl]-3,4-dihydro-2H-[1,4]oxazino[2,3-g]quinoline-8-carbonitrile], on p60^c-src, half-maximal inhibition (IC50) required 1.01 µM.
What is called inhibition is the relative decrease from the control value, in per cent. As to `N#Cc1cnc2cc3c(cc2c1Nc1ccc(F)c(Cl)c1)N(CCCCCl)CCO3` [Example 11, 1-(4-Chlorobutyl)-9-(3-chloro-4-fluoroanilino)-2,3-dihydro-1H-[1,4]oxazino[3,2-g]quinoline-8-carbonitrile], the inhibition at 0.5 µM in [1] was found to be 73%. For the same compound, the IC50 in assay [1] (recombinant enzyme) is 0.001 µM; in the assay on SW620, more than 5 µg/mL; in the assay on MDA435, more than 5 µg/mL; in the assay with Her2Neu, more than 5 µg/mL; in the assay with 3T3, 3.89 µg/mL (≈ 8.74 µM); in the assay with SKBR3, 2.53 µg/mL (≈ 5.68 µM). In addition, in the assay with A431, the IC50 came out at 1.9 µg/mL (≈ 4.27 µM). Also, the inhibition at 10 µg/mL against c-Met was found to be 42%.
For the compound `CN(C)CCCCN1CCOc2cc3ncc(C#N)c(Nc4ccc(F)c(Cl)c4)c3cc21` [Example 12, 9-(3-Chloro-4-fluoroanilino)-1-[4-(dimethylamino)butyl]-2,3-dihydro-1H-[1,4]oxazino[3,2-g]quinoline-8-carbonitrile], the inhibition at 0.5 µM in assay [1] was 53.5%. Also, the IC50 with SW620 was 1.5 µg/mL (≈ 3.3 µM); in the assay on MDA435 it was 2.36 µg/mL (≈ 5.2 µM); in the assay with Her2Neu, more than 5 µg/mL; in the assay on 3T3, 1.49 µg/mL (≈ 3.28 µM); in the assay with SKBR3, 0.649 µg/mL (≈ 1.43 µM); with A431, 0.47 µg/mL (≈ 1.04 µM). At c-Met, this compound showed an inhibition at 10 µg/mL of 66%.

These data come from EP1268487B1, “TRICYCLIC PROTEIN KINASE INHIBITORS” (Wyeth, priority 2000, dated 2001).
